From ChEMBL document CHEMBL1201862, “PubChem BioAssay data set” (2004) come the findings set out here.

Among the test systems are NCI/ADR-RES; KM12; OVCAR-4; SW-620; TK-10; EKVX; NCI-H522; BT-549; SK-MEL-5; IGROV-1; UACC-62; HL-60; NCI-H460; ACHN; SNB-75; Malme-3M; MCF7; HCT-116; HCT-15; NCI-H23.
Common to all, as to test: NCI tumour cell line growth inhibition, 48 h

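Cultured in 96-well plates, cells were exposed to test compound for 48 hours across five concentrations. The concentration for 50% growth inhibition is given as GI50.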 Calls of active or inactive are those of the source. Rule as the data show it: active = GI50 up to about 1.1 µM and inactive = higher.

Consider `O=C1/C(=C/c2ccc(Cl)c(Cl)c2)CNC/C1=C\c1ccc(Cl)c(Cl)c1`, for which the GI50 with NCI/ADR-RES is 3.66 µM (inactive); with KM12, 6.76 µM (inactive); with OVCAR-4, 2.52 µM (inactive); in the assay with SW-620 it was 1.38 µM (inactive); with TK-10 it was 31 µM (inactive); in the assay on EKVX, 6.17 µM (inactive). Moreover, the GI50 was 11 µM (inactive) in the assay with NCI-H522; 27.9 µM (inactive) in the assay with BT-549; 36.5 µM (inactive) with SK-MEL-5; 7.6 µM (inactive) in the assay with IGROV-1; 14 µM (inactive) in the assay on UACC-62; 8.39 µM (inactive) in the assay on HL-60. For the same molecule, the GI50 was 10.3 µM (inactive) in the assay with NCI-H460; 18.1 µM (inactive) in the assay with ACHN; 10.8 µM (inactive) with SNB-75; 28.1 µM (inactive) in the assay on Malme-3M; 7.64 µM (inactive) with MCF7; 2.57 µM (inactive) in the assay with HCT-116. The results for the GI50 with HCT-15 and with NCI-H23 were 2.94 µM and 8.51 µM (inactive), respectively.
Consider `COc1ccc2c(c1O)[C@@]13CCCC=C1[C@@H](C2)[N+](C)(C)CC3`, for which the GI50 in the assay with NCI/ADR-RES, in the assay with KM12, in the assay with OVCAR-4, in the assay on SW-620, with TK-10 and in the assay with EKVX was > 100 µM (inactive) throughout. Further, the GI50 with NCI-H522 is 63 µM (inactive); with BT-549, 46.7 µM (inactive); in the assay on SK-MEL-5 it was 91.4 µM (inactive); in the assay on IGROV-1, > 100 µM (inactive); in the assay with UACC-62, > 100 µM (inactive); in the assay on HL-60, 56.4 µM (inactive). For the same molecule, the GI50 was > 100 µM (inactive) in the assay on NCI-H460; > 100 µM (inactive) in the assay with ACHN; 77.6 µM (inactive) in the assay on SNB-75; > 100 µM (inactive) in the assay with Malme-3M; > 100 µM (inactive) in the assay with MCF7; > 100 µM (inactive) in the assay with HCT-116. The GI50 in the assay with HCT-15 is more than 100 µM; with NCI-H23, > 100 µM (inactive).
Turning to `C/C(=N\NC(=O)N/N=C(\C)c1ccccn1)c1ccccn1`, the GI50 in the assay with NCI/ADR-RES was 8.83 µM (inactive); in the assay on KM12, 0.139 µM (active); in the assay with OVCAR-4 it was 42 µM (inactive); in the assay on SW-620, 0.726 µM (active); in the assay on TK-10, 0.11 µM (active); with EKVX, 19.3 µM (inactive). Moreover, the GI50 is 67.1 µM (inactive) in the assay with NCI-H522; 1.15 µM (inactive) in the assay with BT-549; 0.296 µM (active) in the assay with SK-MEL-5; 6.59 µM (inactive) in the assay with IGROV-1; 40.9 µM (inactive) in the assay on UACC-62; 0.0767 µM (active) with HL-60. Besides, the GI50 in the assay with NCI-H460 is 0.953 µM (active); in the assay on ACHN it was 18.2 µM (inactive); with SNB-75 it was > 100 µM (inactive); in the assay with Malme-3M, > 100 µM (inactive); in the assay on MCF7, 7.16 µM (inactive); in the assay with HCT-116, 0.336 µM (active). The figures for the GI50 with HCT-15 and in the assay with NCI-H23 were 37.8 µM and 0.15 µM (active), respectively.
Turning to `O=[N+]([O-])c1cccc(/N=N/c2c(O)c(S(=O)(=O)O)cc3cc(S(=O)(=O)O)ccc23)c1`, the GI50 in the assay on NCI/ADR-RES, in the assay on KM12, in the assay on OVCAR-4, in the assay with SW-620, with TK-10 and in the assay on EKVX was > 100 µM (inactive) throughout. The GI50 in the assay on NCI-H522, in the assay on BT-549, with SK-MEL-5, in the assay on IGROV-1, in the assay on UACC-62 and in the assay with HL-60 was > 100 µM (inactive) in each case. Further, the GI50 in the assay with NCI-H460 is > 100 µM (inactive); in the assay on ACHN, > 100 µM (inactive); in the assay on SNB-75 it was > 100 µM (inactive); with Malme-3M it was > 100 µM (inactive); in the assay with MCF7, 67.8 µM (inactive); in the assay on HCT-116, > 100 µM (inactive). Further, the figures for the GI50 with HCT-15 and in the assay with NCI-H23 were more than 100 µM and > 100 µM (inactive), respectively.
